Test results taken from patent US9987381B2, “Radioligands for imaging the LPA-1 receptor” (BRISTOL-MYERS SQUIBB COMPANY, priority 2013, dated 2018).

Experiments:
LPA1 receptor = biological target: T1, LPA1 receptor (Mus musculus, UniProt P61793); assay: In vitro autoradiography of mouse lung sections: [18F] radioligand binding and displacement by blocking compound; conditions: for displacement of [18F] radioligand vs total binding: 3.9 nM radioligand
T1 construct: Fresh tissues from naïve mouse lungs and bleomycin treated lungs were immersed into OCT; from tissue; host or cells: lung sections (10 µm) of naïve and bleomycin-treated female C57BL/6 mice
T1 sequence (P61793 whole entry): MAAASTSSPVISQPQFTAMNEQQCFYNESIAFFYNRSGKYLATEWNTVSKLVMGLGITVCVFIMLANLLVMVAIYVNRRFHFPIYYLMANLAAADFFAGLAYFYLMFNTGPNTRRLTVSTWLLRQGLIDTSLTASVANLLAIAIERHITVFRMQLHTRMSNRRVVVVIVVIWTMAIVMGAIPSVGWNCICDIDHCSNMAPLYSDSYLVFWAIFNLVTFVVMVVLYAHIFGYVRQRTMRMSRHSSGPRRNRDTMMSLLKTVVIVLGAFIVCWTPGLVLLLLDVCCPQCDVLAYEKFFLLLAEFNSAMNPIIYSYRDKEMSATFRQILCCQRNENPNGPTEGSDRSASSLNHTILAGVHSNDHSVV
Procedure: The naïve lung mouse tissues were collected from female C57BL/6 mice (8-10 weeks old; 18-25 grams), the samples were stored in −80° C. degree freezer until use. The bleomycin treated animals consists of female C57BL/6 mice (8-10 weeks old; 18-25 grams) were anesthetized with 5% isoflurane the day before study initiation. Bleomycin was dissolved into sterile phosphate buffered saline to a concentration of 500 μg/ml. For injection, mice were anesthetized with 5% isoflurane and using a 1 cc syringe with a 27 g needle, 100 μl of the stock bleomycin solution was injected subcutaneously (SC) into the center of each shaved region (50 μg/site). The bleomycin was administered 5 days/week, Monday through Friday, and was injected into the same region each day until Day 28. Specifically the left lobe of lung was harvested and inflated using a 1:1 OCT (which consists of a mixture 10.24% w/w polyvinyl alcohol 4.26% w/w polyethylene glycol 85.50 w/w non-reactive ingredients)/phosphate buffered saline mixture.
Fresh tissues from naïve mouse lungs and bleomycin treated lungs were immersed into OCT and chilled in 2-methylbutane for 2-5 minutes until frozen. The tissues were then wrapped in foil/ZIPLOC® bag and stored at −80° C. Tissue sections of 10 μm thickness (collected as 2 sections/slide) were cut using a cryostat and thaw-mounted on glass microscope slides, allowed to air dry for approximately 30 minutes. Blocking studies with 1-(4′-(3-methyl-4-(((l-phenylethoxy)carbonyl)amino)isoxazol-5-yl)-[1,1′-biphenyl]-4-yl)cyclopropanecarboxylic acid at 0.1 nM, 1 nM and 10 nM respectively were conducted using the following conditions. The individual slides, 4 slides per concentration, were pre-incubated in a mixture of 50 mM Hepes, […], pH=7.4 and 0.05% Tween-20 buffer solution that contains only this buffer (total binding), as well as […] 1-(4′-(3-methyl-4-(((l-phenylethoxy)carbonyl)amino)isoxazol-5-yl)-[1,1′-biphenyl]-4-yl)cyclopropanecarboxylic acid, 1 nM 1-(4′-(3-methyl-4-(((1-phenylethoxy)carbonyl)amino)isoxazol-5-yl)-[1,1′-biphenyl]-4-yl)cyclopropanecarboxylic acid and 10 nM 1-(4′-(3-methyl-4-(((1-phenylethoxy)carbonyl)amino)isoxazol-5-yl)-[1,1′-biphenyl]-4-yl)cyclopropanecarboxylic acid for a 3 hour period. These individual slides were then incubated in the buffer solution containing 3.9 nM of [^18F]-1-(4′-(4-((((3-(fluoromethyl)benzyl)oxy)carbonyl)amino)-3-methylisoxazol-5-yl)-[1,1′-biphenyl]-4-yl)cyclopropanecarboxylic acid that was formulated in 10% ethanol 90% 0.5% sodium bicarbonate. This solution was diluted with 300 ml of buffer solution to generate a stock solution. From this stock solution, 40 ml was added to each incubation chamber. One of these chambers contained only the radioligand buffer solution, which is referred to as the total binding section. An additional 40 ml was added to each incubation chamber along with the relevant concentration of blocking compound (1-(4′-(3-methyl-4-(((1-phenylethoxy)carbonyl)amino)isoxazol-5-yl)-[1,1′-biphenyl]-4-yl)cyclopropanecarboxylic acid at 0.1 nM, 1 nM, 10 nM). Then the individual slides were incubated in the buffer solution containing the [^18F]-1-(4′-(4-((((3-(fluoromethyl)benzyl)oxy)carbonyl)amino)-3-methylisoxazol-5-yl)-[1,1′-biphenyl]-4-yl)cyclopropanecarboxylic acid radioligand and blocking compound for 1.5 hours at room temperature to reach maximum binding. After 4.5 hours of total incubation, slides from each treatment group were removed from the incubation solutions and placed in an ice-cold wash buffer (50 mM Hepes, 100 mM NaCl, and 0.05% Tween-20, pH=7.4) and rinsed 4 times. Slides were then dried under a stream of cold air for approximately 1 hour. The air-dried slides were exposed by placing the slides onto an imaging plate (BAS-SR 3545S) for 15 minutes at room temperature. The imaging plate was scanned using the bioimaging analyzer (Fujifilm Fluorescent Image Analyzer, FLA-9000). The pixel size of the autoradiogram images was 100 μm. […]

LPA1 = biological target: T2, LPA1 (Macaca mulatta, UniProt H9EN64); assay: PET blocking study of [11C]-BMT-136088 with BMS-986020; type: in vivo, rhesus monkeys
T2 construct: from tissue; host or cells: lung of living anaesthetised rhesus monkeys (in vivo PET)
T2 sequence (H9EN64 1-364): as the sequence (P61793 whole entry) above, with A4I, S8I, Q22P, Y40H, V61I, D193E, H194N, V269I, N331S, N335S counted along it
Procedure: For the blocking data reanalyzed here, each animal was scanned twice during the administration of [^11C]-BMT-136088, using a bolus plus infusion (B+I) protocol: at baseline first, then during the administration of the blocking drug, BMS-986020, also using a bolus plus infusion protocol.
In the blocking study, BMS-986020 was administered i.v. using a 10-min bolus ([…]) followed by a ˜230 min infusion (0.25 mg/kg/hr) for a total dose of 1.224±0.015 mg/kg.
Two rhesus monkeys were included in the blocking, test-retest, and saturation studies: one male, one female; age=4.8±0.8 y; weight=8.6±0.4 kg. Studies in the same animal were separated by at least 2 weeks to allow the animal to recover from anesthesia and other effects. Four rhesus monkeys (2M, 2F) were included in the dosimetry study.
Following a low-dose, CT scan used for attenuation correction and to delineate the lung regions of interest, [^11C]-BMT-136088 was injected using a computer-control pump with a bolus plus infusion protocol, with an initial 1-min bolus and a ˜119-min infusion. The volume injected during the initial bolus represented 100 min (Kbol) worth of infusion in the blocking and test-retest study, and 300 min worth of infusion in the saturation study.
Beginning at the start of each injection, a 120-minute time-of-flight list-mode acquisition on the mCT PET/CT scanner (Siemens Medical Solutions USA, Inc.) was performed. Dynamic PET scan data were reconstructed with corrections for point-spread function, attenuation, normalization, scatter, randoms, and dead time using a 3D OP-OSEM TOF algorithm. PET images were reconstructed into 33 frames, with the following frame timing: 6×30 sec; 3×1 min; 2×2 min; 22×5 min. Each frame contained 400×400×111 (x,y,z) voxels (2.04×2.04×2.0 mm).
Blood samples for PK for each blockade study session were obtained at −1, 60, 90, 120, 150, 210, 240 and 270 minutes after the start of BMS-986020 bolus plus infusion. Red cells were precipitated at 3200 rpm for 10 minutes at 10° C.; the plasma was divided into two aliquots and frozen at −80° C. until shipped for analysis. […]

## Cc1noc(-c2ccc(-c3ccc(C4(C(=O)O)CC4)cc3)cc2)c1NC(=O)OCc1cccc(C[18F])c1 [[^18F]-1-(4′-(4-((((3-(fluoromethyl)benzyl)oxy)carbonyl)amino)-3-methylisoxazol-5-yl)-[1,1′-biphenyl]-4-yl)cyclopropanecarboxylic acid]
LPA1 receptor; bleomycin treated mouse lung section, trichrome collagen staining, FIG. 1
  localisation of radioligand binding in lung: resides within positive collagen

## Cc1noc(-c2ccc(-c3ccc(C4(C(=O)O)CC4)cc3)cc2)c1NC(=O)OC(C)c1ccccc1 (centres unmarked) [1-(4′-(3-methyl-4-(((1-phenylethoxy)carbonyl)amino)isoxazol-5-yl)-[1,1′-biphenyl]-4-yl)cyclopropanecarboxylic acid]
LPA1 receptor; 10 nM blocking compound, naïve and bleomycin treated mouse lung sections
  radioligand displacement (FIG. 2): ~80%
LPA1 receptor; bleomycin treated mouse lung tissue sections, 0.1 nM blocking compound
  displacement of [18F] radioligand vs total binding: 11.3+/−4.2%
LPA1 receptor; bleomycin treated mouse lung tissue sections, 1 nM blocking compound
  displacement of [18F] radioligand vs total binding: 55.5+/−2.3%
LPA1 receptor; bleomycin treated mouse lung tissue sections, 10 nM blocking compound
  displacement of [18F] radioligand vs total binding: 82.7%+/−1.4
LPA1 receptor; naïve mouse lung tissue sections, 0.1 nM blocking compound
  displacement of [18F] radioligand vs total binding: 18.2+/−7.6%
LPA1 receptor; naïve mouse lung tissue sections, 1 nM blocking compound
  displacement of [18F] radioligand vs total binding: 57.3+/−2.6%
LPA1 receptor; naïve mouse lung tissue sections, 10 nM blocking compound
  displacement of [18F] radioligand vs total binding: 72.6%+/−6.7

## Cc1noc(-c2ccc(-c3ccc(C4(C(=O)O)CC4)cc3)cc2)c1NC(=O)O[C@H](C)c1ccccc1 [BMS-986020]
LPA1; VT by MA1, all corrections incl. lung density and blood radioactivity, BMS-986020 i.v. bolus plus infusion
  blockade effect: 54±11%
LPA1; at 1.25 mg/kg
  occupancy of LPA1 binding: ~100%
LPA1; rhesus monkey, at 1.25 mg/kg, read-out: occupancy of LPA1 binding
  receptor occupancy at 1.25 mg/kg: 103 ± 20%
